The values that follow come from ChEMBL document CHEMBL1201862, “PubChem BioAssay data set” (2004).

Activity calls are given as the source filed them.

Assay [1] has as its target Intestinal-type alkaline phosphatase (Homo sapiens, UniProt P09923). Nature of the assay: Dose Response confirmation of uHTS hits from a small molecule inhibitors of human intestinal alkaline phosphatase via a luminescent assay. [Related pubchem assays (depositor defined):AID2544, AID2574]. The format is functional.
Assay [2] has as its target T1, Eukaryotic translation initiation factor 2-alpha kinase 3 (Homo sapiens, UniProt Q9NZJ5).
T1 sequence (Q9NZJ5 whole entry): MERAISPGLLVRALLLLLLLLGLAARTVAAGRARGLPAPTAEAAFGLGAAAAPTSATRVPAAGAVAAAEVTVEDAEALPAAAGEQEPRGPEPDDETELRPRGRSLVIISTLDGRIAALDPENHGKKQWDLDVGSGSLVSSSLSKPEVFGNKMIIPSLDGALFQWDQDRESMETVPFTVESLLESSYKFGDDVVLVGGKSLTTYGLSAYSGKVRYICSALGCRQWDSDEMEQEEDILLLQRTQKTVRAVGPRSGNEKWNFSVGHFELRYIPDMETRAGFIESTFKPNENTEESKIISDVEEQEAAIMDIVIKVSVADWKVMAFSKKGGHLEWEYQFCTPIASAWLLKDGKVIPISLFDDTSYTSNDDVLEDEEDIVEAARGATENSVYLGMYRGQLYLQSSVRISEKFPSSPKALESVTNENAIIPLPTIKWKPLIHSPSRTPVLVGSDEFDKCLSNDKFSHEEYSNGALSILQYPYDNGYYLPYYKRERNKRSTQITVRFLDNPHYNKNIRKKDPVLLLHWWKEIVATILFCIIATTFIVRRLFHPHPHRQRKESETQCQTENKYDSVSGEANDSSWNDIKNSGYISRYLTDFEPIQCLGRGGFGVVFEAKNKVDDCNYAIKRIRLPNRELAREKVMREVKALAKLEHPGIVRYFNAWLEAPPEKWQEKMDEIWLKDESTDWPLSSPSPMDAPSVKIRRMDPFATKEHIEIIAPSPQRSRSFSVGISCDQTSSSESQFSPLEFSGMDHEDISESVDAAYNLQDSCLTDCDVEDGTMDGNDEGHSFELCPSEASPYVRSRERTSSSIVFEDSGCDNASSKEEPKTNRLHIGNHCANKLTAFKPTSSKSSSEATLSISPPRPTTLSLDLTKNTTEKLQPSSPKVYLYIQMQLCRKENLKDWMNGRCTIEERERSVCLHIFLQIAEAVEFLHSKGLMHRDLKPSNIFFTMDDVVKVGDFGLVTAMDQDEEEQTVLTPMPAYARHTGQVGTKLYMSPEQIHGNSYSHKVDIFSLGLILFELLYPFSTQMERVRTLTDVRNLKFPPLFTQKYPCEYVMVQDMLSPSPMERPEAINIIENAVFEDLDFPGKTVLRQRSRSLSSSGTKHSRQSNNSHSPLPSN
The assay is described as follows: Dose response cell-based high-throughput screening assay to measure PERK inhibition. [Related pubchem assays: 1416 ]. The class given is functional.

Assay [3] has as its target T1, Eukaryotic translation initiation factor 2-alpha kinase 3. Nature of the assay: Counterscreen assay for PERK inhibitors: Dose response cell-based high throughput screening assay to measure inhibition of PERK at 6 hours. [Related pubchem assays: 1522, 1416 ]. The class given is functional. For orientation: The purpose of a counterscreen is to sort out artefacts and off-target activity.

Assay [4] deals with Scavenger receptor class B member 1 (Mus musculus, UniProt Q61009). Nature of the assay: mouse SR-BI DiI-HDL uptake blockers – ldlA[mSR-BI] cells, fluorescence, cherry pick, dose response (AID 493194).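 Note: cellular uptake of fluorescent DiI-labeled HDL measured as cell fluorescence.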 The format is functional, cell-based.
Sequence of Scavenger receptor class B member 1 (Q61009 whole entry): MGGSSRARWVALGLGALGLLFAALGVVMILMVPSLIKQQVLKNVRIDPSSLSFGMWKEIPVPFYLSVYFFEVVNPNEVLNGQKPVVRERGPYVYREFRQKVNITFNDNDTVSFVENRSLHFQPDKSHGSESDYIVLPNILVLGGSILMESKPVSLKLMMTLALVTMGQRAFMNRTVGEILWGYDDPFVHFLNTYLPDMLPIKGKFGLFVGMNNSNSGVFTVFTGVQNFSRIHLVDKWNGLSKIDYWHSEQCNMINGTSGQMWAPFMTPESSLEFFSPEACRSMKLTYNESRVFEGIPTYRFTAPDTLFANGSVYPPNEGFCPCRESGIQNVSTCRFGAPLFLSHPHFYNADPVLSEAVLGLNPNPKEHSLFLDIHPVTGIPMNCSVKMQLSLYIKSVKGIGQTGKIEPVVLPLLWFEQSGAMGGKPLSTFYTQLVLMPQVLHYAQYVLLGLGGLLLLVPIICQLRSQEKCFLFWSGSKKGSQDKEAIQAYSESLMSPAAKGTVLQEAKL
Assay [5] has as its target Eukaryotic translation initiation factor 4H (Homo sapiens, UniProt Q15056). The assay is described as follows: inhibitors of translation initiation factor eIF4H – SAR follow-up (AID 435011). The class given is functional.
Assay [6] deals with Polyadenylate-binding protein 1 (Homo sapiens, UniProt P11940). The assay is described as follows: PABP inhibition in translation initiation, SAR follow-up (AID 435018). The class given is functional.
Sequence of Polyadenylate-binding protein 1 (P11940 whole entry): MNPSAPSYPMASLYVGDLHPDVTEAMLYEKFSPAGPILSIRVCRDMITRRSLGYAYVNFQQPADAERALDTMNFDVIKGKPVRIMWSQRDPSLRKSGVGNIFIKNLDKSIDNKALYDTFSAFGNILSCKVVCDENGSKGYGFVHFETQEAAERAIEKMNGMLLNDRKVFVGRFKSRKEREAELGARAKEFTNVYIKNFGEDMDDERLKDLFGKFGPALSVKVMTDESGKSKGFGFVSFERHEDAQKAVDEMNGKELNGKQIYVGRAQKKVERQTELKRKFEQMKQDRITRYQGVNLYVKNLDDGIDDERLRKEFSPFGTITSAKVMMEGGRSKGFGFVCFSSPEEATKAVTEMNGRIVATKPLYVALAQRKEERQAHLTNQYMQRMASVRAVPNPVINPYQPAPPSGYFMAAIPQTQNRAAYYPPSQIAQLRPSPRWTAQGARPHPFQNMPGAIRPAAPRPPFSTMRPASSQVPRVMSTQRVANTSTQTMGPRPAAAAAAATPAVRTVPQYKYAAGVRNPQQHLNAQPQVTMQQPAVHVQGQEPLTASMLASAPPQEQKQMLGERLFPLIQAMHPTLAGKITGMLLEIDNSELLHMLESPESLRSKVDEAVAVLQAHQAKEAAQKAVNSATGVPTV
The target of assay [7] is T2, Corticotropin-releasing factor receptor 2/Corticotropin-releasing factor-binding protein (Homo sapiens, UniProt P24387+Q13324).
T2 sequence (Q13324 whole entry): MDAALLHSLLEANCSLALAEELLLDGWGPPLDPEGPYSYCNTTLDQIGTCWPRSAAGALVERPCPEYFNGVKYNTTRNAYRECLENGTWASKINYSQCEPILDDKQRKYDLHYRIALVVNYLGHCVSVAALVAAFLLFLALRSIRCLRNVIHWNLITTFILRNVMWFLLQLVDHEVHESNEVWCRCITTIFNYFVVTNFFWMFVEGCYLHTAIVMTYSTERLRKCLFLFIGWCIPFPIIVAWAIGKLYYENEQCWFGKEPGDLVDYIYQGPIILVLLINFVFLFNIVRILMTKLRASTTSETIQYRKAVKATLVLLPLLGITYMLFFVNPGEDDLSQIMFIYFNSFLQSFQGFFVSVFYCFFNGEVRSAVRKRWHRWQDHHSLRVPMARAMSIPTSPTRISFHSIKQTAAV
T2 sequence (P24387 whole entry): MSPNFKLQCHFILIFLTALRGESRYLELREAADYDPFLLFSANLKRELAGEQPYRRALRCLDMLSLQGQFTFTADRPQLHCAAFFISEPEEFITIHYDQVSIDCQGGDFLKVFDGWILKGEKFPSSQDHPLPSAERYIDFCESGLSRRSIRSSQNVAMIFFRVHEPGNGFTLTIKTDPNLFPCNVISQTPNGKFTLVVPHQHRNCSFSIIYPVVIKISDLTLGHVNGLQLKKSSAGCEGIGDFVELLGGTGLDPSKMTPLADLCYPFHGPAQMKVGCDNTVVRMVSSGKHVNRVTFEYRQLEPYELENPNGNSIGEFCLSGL
The assay is described as follows: activators of CRF receptor 2 with binding protein – uHTS hits, confirmation (AID 602473). The format is functional. Particulars: read-out: EC50_Mean.

Assay [8] concerns the target T3, Sentrin-specific protease 1 (Homo sapiens, UniProt Q9P0U3).
T3 sequence (Q9P0U3 whole entry): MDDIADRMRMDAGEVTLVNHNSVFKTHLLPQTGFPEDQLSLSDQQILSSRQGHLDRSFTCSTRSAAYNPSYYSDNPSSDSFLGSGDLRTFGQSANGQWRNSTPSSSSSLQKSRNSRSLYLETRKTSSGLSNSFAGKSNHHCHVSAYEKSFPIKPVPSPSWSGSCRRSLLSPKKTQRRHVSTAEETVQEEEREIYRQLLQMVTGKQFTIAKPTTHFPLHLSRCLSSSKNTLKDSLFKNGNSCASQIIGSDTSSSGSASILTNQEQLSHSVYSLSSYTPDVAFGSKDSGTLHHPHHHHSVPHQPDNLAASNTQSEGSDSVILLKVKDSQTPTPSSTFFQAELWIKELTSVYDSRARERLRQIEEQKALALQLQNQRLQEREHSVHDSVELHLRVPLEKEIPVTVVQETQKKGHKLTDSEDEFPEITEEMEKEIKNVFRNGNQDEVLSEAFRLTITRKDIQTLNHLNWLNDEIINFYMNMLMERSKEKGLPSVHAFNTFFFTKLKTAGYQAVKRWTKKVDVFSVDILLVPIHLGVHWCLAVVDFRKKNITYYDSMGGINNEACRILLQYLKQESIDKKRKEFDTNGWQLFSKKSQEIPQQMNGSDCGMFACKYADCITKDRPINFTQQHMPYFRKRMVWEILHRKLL
The assay is described as follows: SENP1 catalytic domain blockers, concentration series – biochemical, kinetic FRET, dose response (AID 651697). The class given is functional. Particulars: read-out: IC50_Mean.

Assay [9] has as its target T3, Sentrin-specific protease 1. Nature of the assay: Dose response confirmation of small molecule inhibitors of the catalytic domain of the SUMO protease, SENP1 in a FRET assay. Particulars: read-out: IC50_Mean. The format is functional.
The target in assay [10] is DNA dC->dU-editing enzyme APOBEC-3A (Homo sapiens, UniProt P31941). Nature of the assay: A3A deaminase inhibition for selectivity – biochemical, dose response (AID 504722). The format is functional.
Sequence of DNA dC->dU-editing enzyme APOBEC-3A (P31941 whole entry): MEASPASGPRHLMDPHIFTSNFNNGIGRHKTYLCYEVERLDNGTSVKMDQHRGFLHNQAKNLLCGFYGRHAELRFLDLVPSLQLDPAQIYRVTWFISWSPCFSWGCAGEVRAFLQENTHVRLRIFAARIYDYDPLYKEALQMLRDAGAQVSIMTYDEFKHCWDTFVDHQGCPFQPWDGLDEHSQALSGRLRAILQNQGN
In assay [11] the target is DNA dC->dU-editing enzyme APOBEC-3G (Homo sapiens, UniProt Q9HC16). The assay is described as follows: Dose Response confirmation of small molecule APOBEC3G DNA Deaminase Inhibitors via a fluorescence-based single-stranded DNA deaminase assay. [Related pubchem assays (depositor defined):AID493012, AID493028]. The format is functional.
Sequence of DNA dC->dU-editing enzyme APOBEC-3G (Q9HC16 whole entry): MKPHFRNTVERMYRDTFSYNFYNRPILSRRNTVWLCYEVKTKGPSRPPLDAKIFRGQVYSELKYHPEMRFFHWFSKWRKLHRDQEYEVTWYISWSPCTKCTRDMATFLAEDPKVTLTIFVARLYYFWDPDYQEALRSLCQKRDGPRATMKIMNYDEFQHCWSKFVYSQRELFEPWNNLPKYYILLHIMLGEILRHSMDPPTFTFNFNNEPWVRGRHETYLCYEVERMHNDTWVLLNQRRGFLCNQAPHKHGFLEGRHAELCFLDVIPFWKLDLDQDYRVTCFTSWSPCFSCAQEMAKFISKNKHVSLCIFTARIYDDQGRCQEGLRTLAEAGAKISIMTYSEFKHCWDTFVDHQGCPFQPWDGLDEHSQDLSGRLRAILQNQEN

Sequence of Intestinal-type alkaline phosphatase (P09923 whole entry): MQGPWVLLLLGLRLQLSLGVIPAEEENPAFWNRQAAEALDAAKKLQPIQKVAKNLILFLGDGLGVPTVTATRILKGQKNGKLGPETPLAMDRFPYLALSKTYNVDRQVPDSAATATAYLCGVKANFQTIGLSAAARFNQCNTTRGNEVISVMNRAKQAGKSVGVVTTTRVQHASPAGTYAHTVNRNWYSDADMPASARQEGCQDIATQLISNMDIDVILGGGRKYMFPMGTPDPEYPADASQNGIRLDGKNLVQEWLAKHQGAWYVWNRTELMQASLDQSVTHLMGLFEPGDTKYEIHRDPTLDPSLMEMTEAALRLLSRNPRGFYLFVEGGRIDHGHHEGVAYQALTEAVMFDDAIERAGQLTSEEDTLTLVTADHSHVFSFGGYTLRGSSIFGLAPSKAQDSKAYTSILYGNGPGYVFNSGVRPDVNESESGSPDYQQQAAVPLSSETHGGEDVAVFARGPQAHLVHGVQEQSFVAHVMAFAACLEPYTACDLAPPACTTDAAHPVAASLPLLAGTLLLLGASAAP

On to `N#Cc1cc(Oc2ccccc2)c(-n2nnc3ccccc32)cc1C#N`, for which, in assay [1], the IC50 was > 100 µM (inactive).
As for `Cn1cc(NC(=O)Nc2ccc(C(F)(F)F)cc2)c(C(F)(F)F)n1`, the EC50 in assay [2] and in assay [3] was > 55.7 µM (not active) each time.
For the molecule `Cc1ccc(NC(=O)c2ccc3c(c2)CCN3S(C)(=O)=O)cc1C`, the AC50 – broadly, the concentration at which the activity in the assay is half-maximal – in assay [4] is 23.8 µM (active).
Regarding `Cc1cccc(NC(=O)CSc2ccc(-c3ccco3)nn2)c1`, the IC50 in assay [5] and in [6] was > 100 µM (inactive) throughout.
With `Cc1cc(C)c(NC2=NS(=O)(=O)c3ccccc32)c(C)c1`, the EC50 in [2] and in assay [3] was > 55.7 µM (not active) throughout.
As for `Cc1ccc2c(c1)nnc1nnc(SCC(=O)O)n12`, the IC50 in assay [1] is > 100 µM (inactive); in [8], 9.05 µM (active); in [9], 10.9 µM (active). Moreover, the EC50 in [7] is > 53 µM (inactive).
Regarding `COc1cc([N+](=O)[O-])ccc1NC(=O)COC(=O)c1ccc2c(c1)NC(=O)CS2`, the figures for the IC50 in assay [5] and in assay [6] were 5.18 µM (active) and > 100 µM (inactive), respectively.
In the case of `Sc1nnc(COc2ccccc2)n1/N=C/c1ccncc1`, the results for the IC50 in [10] and in [11] were > 100 µM (inactive) and 3.12 µM (active), respectively.
